Test results taken from patent publication US12195596B2, “Hyperbranched boric acid modified phthalonitrile monomer as well as preparation method and use thereof” (priority 2021, dated 2025).

Assay: Solubility of phthalonitrile monomers in common organic solvents
Format: physicochemical
Design: key: “+” represents “soluble”

Solubility (DMF)	Solubility (DMSO)	Solubility (NMP)	Solubility (THF)	Solubility (acetone)	SMILES
+	+	+	+	+	N#Cc1ccc(Oc2cccc(OB(Oc3cccc(Oc4ccc(C#N)c(C#N)c4)c3)Oc3cccc(Oc4ccc(C#N)c(C#N)c4)c3)c2)cc1C#N [Example 3]
+	+	+	+	+	N#Cc1ccc(Oc2cccc(OB(Oc3cccc(Oc4ccc(C#N)c(C#N)c4)c3)c3ccccc3)c2)cc1C#N [Example 4]
